From patent US10351586B2, “Cytidine derivative dimers and applications thereof” (CHANGZHOU FANGYUAN PHARMACEUTICAL CO., LTD, priority 2014, dated 2019)
Marks after values point to notes of the source that are not given here.

Assays:
[1] = test system: HCT-116 human colon cancer xenografts; test: Tumor growth inhibition of HCT-116 human colon cancer xenografts in nude mice; format: in vivo, Balb/c nude mice; details: for Relative tumor proliferation rate (T/C %) / Relative tumor volume (RTV) / Tumor growth inhibition rate (TGI %) / Tumor volume of HCT-116 human colon cancer xenografts: single IP injection (QD×1), D1 and D2 400 mg/kg, D3 350 mg/kg, D4 300 mg/kg; for Tumor volume of HCT-116 human colon cancer xenografts: Mean±SEM
Procedure: 2. Preparation of the test substance was performed by dissolving the test substance using the following solvents:
3. Animal experiments were performed. […] Animals were numbered using their tail number.
4.1 Tumor cells were human HCT-116 colon cancer cells purchased from the Institute of Cell Biology, Chinese Academy of Sciences (Beijing, China). F-12 medium (containing 10% FBS) was used to culture cells in a carbon dioxide incubator at about 37° C., saturated humidity, under 5% CO2 and 95% air. Before inoculation, cells in logarithmic growth phase were collected. After digested by 0.25% trypsin, the cells were washed with PBS once. The cells were resuspended with serum-free medium and counted. Serum-free medium were used for cell resuspension, until the cell concentration was adjusted to about 3×10^7 cell/mL.
4.2 Animal inoculation and grouping were performed.
The diameters (D) of the tumor nodules were measured three times a week with a circle sizer ruler. In addition, the following formula was applied to calculate the volume of the tumor nodules (V): V=[…](D/2)^3 generally for a spherical shape. Evaluation indexes of antitumor activity were tumor growth inhibition rate TGI (%) and relative tumor proliferation rate T/C (%).
The calculation formula of TGI was: TGI (%)=(Vcontrol−VTreatment)/Vcontrol)×100%. The relative tumor volume (RTV) was calculated by: RTV=Vt/V0, where V0 is the tumor volume at the time of group administration, and Vt is the tumor volume at the time of measurement.
The mice were weighed 3 times every week.
4.5 Data and statistical analysis were provided.

[2] = Body weight / toxicity of a single intraperitoneal injection in HCT-116 colon tumor-bearing nude mice; details: D3 350 mg/kg, D4 300 mg/kg; for Average rate of weight change of the animals / Average weight of the animals: single IP injection (QD×1), D1 and D2 400 mg/kg; for Average weight of the animals: Mean±SEM
Procedure: Corresponding test substance was weighed and put into a 5 mL glass tube. The test substance was dissolved in ethanol under the stirring by a 5 mm magnetic stirrer. After a complete dissolution, Cremophor EL was added with continuous stirring. Immediately prior to the user of the test substance, the labeled amount of physiological saline was added and stirred.
Animal experiments were performed. The animals were female Balb/c nude mice at specific pathogen free (SPF) level and were supplied from Shanghai Sippr/BK Lab Animal Ltd. (Shanghai, China). […] These animals were at the age of about 7 weeks to about 9 weeks at the beginning of the experiments and had the weight of about 18 grams to about 22 grams at the beginning of the experiment. The animals had acclimatization duration of about 5 days to about 7 days. Animals were numbered using their tail number. The animal room was maintained at about 23±2° C., 40%-70% humidity, with alternating light and dark every 12 hours.
4.2 Animal inoculation and grouping were performed. Under aseptic conditions, each nude mice was injected with 0.1 mL cell suspension into the right hind leg subcutaneously (3×10^6 cell/mouse). When the size of the tumor grew to have a volume of about 60-150 mm^3, nude mice with a similar tumor size and a desirable shape (e.g., with substantially same shape such as a substantially spherical shape, without having irregular shapes or multiple tumors grouped together) were selected and grouped. In the experiment, there were six mice in each group.
The mice in control group were injected with a mixed solution including ethanol, Cremophor EL and normal saline at a ratio of 5:5:90.
4.4 Clinical symptoms were provided. All clinical symptoms of each animal were recorded at the beginning of the experiments and during the experiments. The observation was performed at the same time every day.
After administration of the test substance, when the weight reduction was >20%, when the animal was dying, or when the tumor volume exceeds about 2800 mm^3, the animal were euthanized by applying CO2. The tumor was separated and weighed, an autopsy was performed, and visual inspection was conducted and recorded on whether there were pathological changes in the organs.

[3] = D1 400 mg/kg Day 7, D2 400 mg/kg Day 9, D3 350 mg/kg Day 11, D4 300 mg/kg Day 11, single IP

SMILES: O=C(CCCC(=O)OC[C@H]1O[C@@H](n2ccc(NC(=O)OCc3ccccc3)nc2=O)C(F)(F)[C@@H]1O)OC[C@H]1O[C@@H](n2ccc(NC(=O)OCc3ccccc3)nc2=O)C(F)(F)[C@@H]1O [Compound D3, 1,5-di-[4-N-(benzyloxycarbonyl)-2′-deoxy-2′,2′-difluoro-cytidine]glutarate]
- Relative tumor proliferation rate, minimum [1, 3]: 3.41%
- Tumor inhibition rate, maximum [1, 3]: 98.54%
- Relative tumor proliferation rate (T/C %) ([1]; Day 0): 0.00%
- Relative tumor volume (RTV) ([1]; Day 0): 1.00
- Tumor growth inhibition rate (TGI %) ([1]; Day 0): 0.00%
- Tumor volume of HCT-116 human colon cancer xenografts ([1]; Day 0): 38.77 ± 4.33** mm^3
- Relative tumor proliferation rate (T/C %) ([1]; Day 1): 60.98%
- Relative tumor volume (RTV) ([1]; Day 1): 0.98 ± 0.12
- Tumor growth inhibition rate (TGI %) ([1]; Day 1): 79.83%
- Tumor volume of HCT-116 human colon cancer xenografts ([1]; Day 1): 36.40 ± 3.98** mm^3
- Relative tumor proliferation rate (T/C %) ([1]; Day 2): 49.58%
- Relative tumor volume (RTV) ([1]; Day 2): 0.98 ± 0.12
- Tumor growth inhibition rate (TGI %) ([1]; Day 2): 83.59%
- Tumor volume of HCT-116 human colon cancer xenografts ([1]; Day 2): 36.40 ± 3.98** mm^3
- Relative tumor proliferation rate (T/C %) ([1]; Day 4): 23.26%
- Relative tumor volume (RTV) ([1]; Day 4): 0.65 ± 0.10
- Tumor growth inhibition rate (TGI %) ([1]; Day 4): 92.26%
- Tumor volume of HCT-116 human colon cancer xenografts ([1]; Day 4): 23.00 ± 3.08** mm^3
- Relative tumor proliferation rate (T/C %) ([1]; Day 7): 6.76%
- Relative tumor volume (RTV) ([1]; Day 7): 0.34 ± 0.06
- Tumor growth inhibition rate (TGI %) ([1]; Day 7): 97.08%
- Tumor volume of HCT-116 human colon cancer xenografts ([1]; Day 7): 12.62 ± 3.10** mm^3
- Relative tumor proliferation rate (T/C %) ([1]; Day 9): 4.71%
- Relative tumor volume (RTV) ([1]; Day 9): 0.32 ± 0.05
- Tumor growth inhibition rate (TGI %) ([1]; Day 9): 97.86%
- Tumor volume of HCT-116 human colon cancer xenografts ([1]; Day 9): 12.62 ± 3.10** mm^3
- Relative tumor proliferation rate (T/C %) ([1]; Day 11): 3.41%
- Relative tumor volume (RTV) ([1]; Day 11): 0.37 ± 0.09
- Tumor growth inhibition rate (TGI %) ([1]; Day 11): 98.54%
- Tumor volume of HCT-116 human colon cancer xenografts ([1]; Day 11): 14.28 ± 3.69** mm^3
- Relative tumor proliferation rate (T/C %) ([1]; Day 14): 5.78%
- Relative tumor volume (RTV) ([1]; Day 14): 1.00 ± 0.00
- Tumor growth inhibition rate (TGI %) ([1]; Day 14): 97.43%
- Tumor volume of HCT-116 human colon cancer xenografts ([1]; Day 14): 36.98 ± 4.82** mm^3
- Relative tumor proliferation rate (T/C %) ([1]; Day 16): 10.49%
- Relative tumor volume (RTV) ([1]; Day 16): 2.17 ± 0.14
- Tumor growth inhibition rate (TGI %) ([1]; Day 16): 95.58%
- Tumor volume of HCT-116 human colon cancer xenografts ([1]; Day 16): 80.10 ± 11.07** mm^3
- Relative tumor proliferation rate (T/C %) ([1]; Day 18): 16.55%
- Relative tumor volume (RTV) ([1]; Day 18): 3.16 ± 0.39
- Tumor growth inhibition rate (TGI %) ([1]; Day 18): 93.97%
- Tumor volume of HCT-116 human colon cancer xenografts ([1]; Day 18): 120.40 ± 23.44** mm^3
- Relative tumor proliferation rate (T/C %) ([1]; Day 21): 23.70%
- Relative tumor volume (RTV) ([1]; Day 21): 5.55 ± 0.66
- Tumor growth inhibition rate (TGI %) ([1]; Day 21): 91.65%
- Tumor volume of HCT-116 human colon cancer xenografts ([1]; Day 21): 204.05 ± 36.25 mm^3
- Relative tumor proliferation rate (T/C %) ([1]; Day 23): 31.41%
- Relative tumor volume (RTV) ([1]; Day 23): 6.21 ± 0.61
- Tumor growth inhibition rate (TGI %) ([1]; Day 23): 90.30%
- Tumor volume of HCT-116 human colon cancer xenografts ([1]; Day 23): 229.06 ± 36.15 mm^3
- Relative tumor proliferation rate (T/C %) ([1]; Day 25): 33.40%
- Relative tumor volume (RTV) ([1]; Day 25): 7.22 ± 0.53
- Tumor growth inhibition rate (TGI %) ([1]; Day 25): 89.70%
- Tumor volume of HCT-116 human colon cancer xenografts ([1]; Day 25): 266.11 ± 39.63 mm^3
- Relative tumor proliferation rate (T/C %) ([1]; Day 28): 43.93%
- Relative tumor volume (RTV) ([1]; Day 28): 9.28 ± 0.73
- Tumor growth inhibition rate (TGI %) ([1]; Day 28): 87.09%
- Tumor volume of HCT-116 human colon cancer xenografts ([1]; Day 28): 347.17 ± 60.84 mm^3
- Relative tumor proliferation rate (T/C %) ([1]; Day 30): 52.09%
- Relative tumor volume (RTV) ([1]; Day 30): 12.93 ± 0.90
- Tumor growth inhibition rate (TGI %) ([1]; Day 30): 82.93%
- Tumor volume of HCT-116 human colon cancer xenografts ([1]; Day 30): 479.01 ± 75.54 mm^3
- Inhibition of growth of HCT-116 human colon cancer xenografts (in words) ([1]; single IP injection, 300-400 mg/kg): higher tumor inhibition rates
- Average rate of weight change of the animals ([2]; Day 0): 0.00%
- Average weight of the animals ([2]; Day 0): 19.95 ± 0.09 g
- Average rate of weight change of the animals ([2]; Day 1): −3.59 ± 0.66%
- Average weight of the animals ([2]; Day 1): 19.23 ± 0.31 g
- Average rate of weight change of the animals ([2]; Day 2): −11.25 ± 0.96 %
- Average weight of the animals ([2]; Day 2): 17.70 ± 0.26 g
- Average rate of weight change of the animals ([2]; Day 4): −8.10 ± 2.84%
- Average weight of the animals ([2]; Day 4): 18.24 ± 0.58 g
- Average rate of weight change of the animals ([2]; Day 7): −1.68 ± 2.50%
- Average weight of the animals ([2]; Day 7): 19.51 ± 0.48 g
- Average rate of weight change of the animals ([2]; Day 9): 4.50 ± 1.93 %
- Average weight of the animals ([2]; Day 9): 20.74 ± 0.38 g
- Average rate of weight change of the animals ([2]; Day 11): 6.38 ± 1.68 %
- Average weight of the animals ([2]; Day 11): 21.12 ± 0.41 g
- Average rate of weight change of the animals ([2]; Day 14): 7.12 ± 1.19 %
- Average weight of the animals ([2]; Day 14): 21.26 ± 0.21 g
- Average rate of weight change of the animals ([2]; Day 16): 10.78 ± 0.88 %
- Average weight of the animals ([2]; Day 16): 22.00 ± 0.40 g
- Average rate of weight change of the animals ([2]; Day 18): 13.71 ± 0.63 %
- Average weight of the animals ([2]; Day 18): 22.58 ± 0.38 g
- Average rate of weight change of the animals ([2]; Day 21): 10.72 ± 1.6 %
- Average weight of the animals ([2]; Day 21): 21.98 ± 0.41 g
- Average rate of weight change of the animals ([2]; Day 23): 13.08 ± 2.31 %
- Average weight of the animals ([2]; Day 23): 22.44 ± 0.41 g
- Average rate of weight change of the animals ([2]; Day 25): 13.34 ± 2.34 %
- Average weight of the animals ([2]; Day 25): 22.50 ± 0.53 g
- Average rate of weight change of the animals ([2]; Day 28): 11.44 ± 2.29 %
- Average weight of the animals ([2]; Day 28): 22.12 ± 0.48 g
- Average rate of weight change of the animals ([2]; Day 30): 15.37 ± 2.93%
- Average weight of the animals ([2]; Day 30): 22.90 ± 0.60 g
- Toxicity in tumor-bearing mice (in words) ([2]; single IP injection, D2 400 mg/kg, judged from body weight versus control): no toxicity
